Laboratory results reported in PubChem BioAssay AID1411 (The Scripps Research Institute Molecular Screening Center, 2008).
Active and inactive are the calls of the source. The rule behind the calls is not given here.

Biological target: Signal transducer and activator of transcription 1-alpha/beta (Homo sapiens) (UniProt P42224)
Test: STAT1 transcription blockade – cell-based, NIH 3T3, luciferase reporter, counter-screen for STAT3 inhibitor project, dose response (AID 1411)
Conditions: NIH 3T3 fibroblasts, counterscreen

Chain of Signal transducer and activator of transcription 1-alpha/beta (Homo sapiens) (P42224 whole entry, looked up): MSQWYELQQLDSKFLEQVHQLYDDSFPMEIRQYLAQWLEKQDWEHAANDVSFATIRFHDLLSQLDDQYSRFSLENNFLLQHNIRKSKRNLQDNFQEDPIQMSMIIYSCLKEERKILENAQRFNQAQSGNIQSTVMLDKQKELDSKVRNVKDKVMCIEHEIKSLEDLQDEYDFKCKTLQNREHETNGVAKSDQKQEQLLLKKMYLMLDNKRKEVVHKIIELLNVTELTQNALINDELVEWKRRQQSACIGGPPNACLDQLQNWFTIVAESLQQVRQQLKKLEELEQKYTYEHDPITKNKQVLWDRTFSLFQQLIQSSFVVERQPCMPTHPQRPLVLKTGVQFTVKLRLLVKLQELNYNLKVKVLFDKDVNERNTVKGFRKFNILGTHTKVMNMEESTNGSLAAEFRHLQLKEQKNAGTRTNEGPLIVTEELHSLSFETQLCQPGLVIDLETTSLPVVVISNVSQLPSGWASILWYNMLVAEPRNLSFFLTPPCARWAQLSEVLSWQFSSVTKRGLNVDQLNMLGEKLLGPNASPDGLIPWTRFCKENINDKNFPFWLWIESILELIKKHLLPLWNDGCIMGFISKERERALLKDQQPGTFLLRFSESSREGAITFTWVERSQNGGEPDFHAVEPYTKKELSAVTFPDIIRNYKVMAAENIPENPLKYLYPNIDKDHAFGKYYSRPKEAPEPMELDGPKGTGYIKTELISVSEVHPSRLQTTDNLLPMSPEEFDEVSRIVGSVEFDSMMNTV

| SMILES | IC50 |
| --- | --- |
| CC1CCC2C(=O)N(c3ccccc3OC(=O)c3ccccc3)C(=O)C2C1 (centres undefined) | > 55.7 µM (inactive) |
| CNC(=O)Oc1cccc(-c2cn3cc(Cl)ccc3n2)c1 | inactive |
| Cc1nc2ccccc2cc1OCc1ccccc1 | > 55.7 µM (inactive) |
| CC[n+]1ccccc1/C=C/c1ccc(N(C)C)cc1 | > 55.7 µM (inactive) |
| Clc1ccc(CSc2nnc(Cn3cnc4ccccc43)o2)cc1 | > 55.7 µM (inactive) |
| COC(=O)c1nn(-c2ccc3c(c2)CCN3C(C)=O)cc1O | 9.87 µM |
| COC(=O)c1cccc(NC(=O)CSc2nc3cccnc3n2C)c1 | > 55.7 µM (inactive) |
| O=C(Nc1nccs1)c1ccc(S(=O)(=O)NCC2CCCCC2)cc1 | > 55.7 µM (inactive) |
| COc1ccc(C)cc1-n1nnnc1SCn1nnc2ccccc2c1=O | > 55.7 µM (inactive) |
| COc1ccc(Br)cc1/C(C)=N/NC1=NCCN1 | > 55.7 µM (inactive) |
| CCOC(=O)C1=C(Cc2ccc(C)cc2)C(=O)c2ccccc2C1=O | > 55.7 µM (inactive) |
| O=C(Nc1cccc(O)c1)C(=O)Nc1ccccn1 | inactive |
| Cc1csc(NC(=O)c2cc3c(s2)CCCC3)n1 | inactive |
| COc1cc(OC)cc(C(=O)Nc2ccc(-c3nc4ccccc4o3)cc2)c1 | > 55.7 µM (inactive) |
| Cc1ccc(-n2nnnc2SCn2nnc3ccccc3c2=O)c(C)c1 | > 55.7 µM (inactive) |
| O=C(Nc1ccn(Cc2ccccc2F)n1)c1ccc(COc2ccc(Br)cc2)cc1 | > 55.7 µM (inactive) |
| Cc1ccc(-c2cn3cc([N+](=O)[O-])ccc3n2)cc1 | > 18.6 µM (inactive) |
| COc1ccc(/C=N/NC(=S)Nc2cccc(C(=O)O)c2)cc1 | inactive |
| CCCOc1ccc(CSc2nc3ccccc3[nH]2)cc1 | > 55.7 µM (inactive) |
| Cc1ccccc1OCCCCn1cnc2ccccc21 | > 55.7 µM (inactive) |
| COc1ccc(CC(=O)Nc2cccc(SC)c2)cc1OC | > 55.7 µM (inactive) |
| O=C(CSc1ccc2ccccc2c1)Nc1ccncc1 | > 55.7 µM (inactive) |
| Cc1ccc(N2C(=O)c3ccccc3C2O)nc1 (centres undefined) | inactive |
| CCCNC(=O)c1ccc(-c2nc3ccccc3s2)s1 | inactive |

| SMILES | IC50 |
| --- | --- |
| Cc1cccc(-c2nc3cc(NC(=O)C4CCCO4)ccc3o2)c1 (centres undefined) | inactive |
| Nc1c(C(=O)NC2CCCCC2)nsc1C(=O)OCC(=O)NC1CCCCC1 | > 55.7 µM (inactive) |
| O=C(Oc1ccccc1N1C(=O)C2CCCCC2C1=O)c1ccccc1 (centres undefined) | > 55.7 µM (inactive) |
| CC(C)Cn1c(N)c(C(=O)CSc2ccccc2)c(=O)n(C)c1=O | > 55.7 µM (inactive) |
| CN1/C(=C\C(=O)C[n+]2ccc(C(=O)c3ccccc3)cc2)C(C)(C)c2ccccc21 | > 55.7 µM (inactive) |
| O=C(C1CCN(c2nc3ccc(Br)cc3s2)CC1)N1CCC2(CC1)OCCO2 | > 55.7 µM (inactive) |
| C[C@@H]1O[C@@H](O[C@H]2C[C@@H](O)[C@]3(CO)[C@H]4[C@H](O)C[C@]5(C)[C@@H](C6=CC(=O)OC6)CC[C@]5(O)[C@@H]4CC[C@]3(O)C2)[C@H](O)[C@H](O)[C@H]1O | > 55.7 µM (inactive) |
| Cc1cc(C)n(Cc2ccc(NC(=O)c3ccc(COc4ccccc4Br)cc3)cc2)n1 | > 55.7 µM (inactive) |
| Cc1ccc(Cl)cc1N1CCN(C(=O)COc2ccc(S(=O)(=O)NC(C)C)cc2)CC1 | > 55.7 µM (inactive) |
| C[C@H]1CCC[C@@H](O)CCC/C=C/c2cc(O)cc(O)c2C(=O)O1 | > 55.7 µM (inactive) |
| Cc1cccc(N2CCN(C(=O)CSCc3c(C)noc3C)CC2)c1C | > 55.7 µM (inactive) |
| Clc1ccc2ncc(-c3nnnn3-c3ccccc3)c(-c3ccccc3)c2c1 | > 55.7 µM (inactive) |
| Cc1cc(OCC(=O)Nc2ccncc2)ccc1Br | > 55.7 µM (inactive) |
| COc1ccc2nc3c(cc2c1)c(NC(=O)c1cccs1)nn3CC(C)C | > 55.7 µM (inactive) |
| c1ccc(CC2CCN(c3ncnc4sccc34)CC2)cc1 | > 55.7 µM (inactive) |
| Cc1nn2cc(-c3ncc(C(F)(F)F)cc3Cl)cnc2c1Br | inactive |
| CN(C)S(=O)(=O)Oc1cccc(C(=O)Nc2ccc(Cl)cc2)c1 | > 55.7 µM (inactive) |
| COc1ccc(C(=O)Nc2ccc3oc(Cc4ccc(Cl)cc4)nc3c2)cc1OC | > 55.7 µM (inactive) |
| O=c1c2c(nc3n1CCCCC3)sc1c(O)cccc12 | > 55.7 µM (inactive) |
| COc1ccc(NS(=O)(=O)c2ccc(NC(=O)c3ccc(N(C)S(C)(=O)=O)cc3)cc2)cc1 | > 55.7 µM (inactive) |
| Cc1ccc2c(C)nc(Nc3nc(CSc4nc5ccccc5[nH]4)cc(=O)[nH]3)nc2c1 | > 55.7 µM (inactive) |
| COc1ccc(-c2nn(C)c(=O)c3ccccc23)cc1NC(=O)COc1ccc(C)cc1 | inactive |
| CC(=O)N1CCc2cc(S(=O)(=O)NC3CCCc4ccccc43)ccc21 (centres undefined) | > 55.7 µM (inactive) |
| CC(=O)Nc1ccc(-c2csc(Nc3ccc(Cl)cn3)n2)cc1 | > 55.7 µM (inactive) |

| SMILES | IC50 |
| --- | --- |
| CC(=O)c1cn(CC(=O)Nc2ccccc2C)c2ccccc12 | > 55.7 µM (inactive) |
| Cn1c(CN2CCCCC2)nc2cc(NC(=O)c3cccc(Br)c3)ccc21 | > 55.7 µM (inactive) |
| O=C(Nc1cccc(Cl)c1)Nc1ccnc(-c2cccnc2)n1 | > 55.7 µM (inactive) |
| CCc1c(C)c2ccc(OCC(=O)OC(C)C)c(C)c2oc1=O | > 55.7 µM (inactive) |
| Clc1ccc(OCc2cc(-c3ccccc3)no2)c(Cl)c1 | inactive |
| O=C(Oc1cccc(Nc2ncnc3ccccc23)c1)c1ccccc1Cl | > 55.7 µM (inactive) |
| O=C(Nc1ccncc1)c1ccc2c(c1)C(=O)N(C1CCCCC1)C2=O | > 55.7 µM (inactive) |
| COc1cc(OC)cc(C(=O)Nc2nnc(NC(=S)Nc3ccccc3)s2)c1 | > 55.7 µM (inactive) |
| O=C(Nc1ccncc1)c1ccc(-c2ccccc2)cc1 | > 55.7 µM (inactive) |
| O=C(COC(=O)c1n[nH]c2ccccc12)Nc1ccc(S(=O)(=O)N2CCCC2)cc1 | > 55.7 µM (inactive) |
| COc1cccc(-c2cc(C(=O)Nc3cccc(O)c3)no2)c1 | inactive |
| O=C(Nc1ccc(Oc2ccccc2)cc1)c1cnc2n(c1=O)CCS2 | > 55.7 µM (inactive) |
| CCCOc1ccc(/C=N/NC(=S)Nc2ccccc2[N+](=O)[O-])c(O)c1 | > 55.7 µM (inactive) |
| CCC(C)(C)c1ccc(OCCCC[n+]2cccc(C)c2)c(C(C)(C)CC)c1 | > 55.7 µM (inactive) |
| CCN(CC)c1ccc(NC(=O)CN2C(=O)CSc3ncccc32)c(C)c1 | > 55.7 µM (inactive) |
| O=C1CCCN1c1ccc(S(=O)(=O)N2CCC(c3ccccc3)CC2)cc1 | > 55.7 µM (inactive) |
| O=C(Nc1cccc(S(=O)(=O)Nc2ccccc2Cl)c1)c1ccc(Cl)nc1 | > 55.7 µM (inactive) |
| O=C1C2C3c4ccccc4C(c4ccccc43)C2c2nc3ccccc3n21 (centres undefined) | > 55.7 µM (inactive) |
| O=C1C2C3c4ccccc4C(c4ccccc43)[C@@H]2c2nc3ccccc3n21 (some centres undefined) | > 55.7 µM (inactive) |
| O=C(COc1ccc2ccccc2c1)Nc1ccncc1 | > 55.7 µM (inactive) |
| CSc1ccc(NC(=O)N2CCN(c3nc4ccccc4s3)CC2)cc1 | > 55.7 µM (inactive) |
| CCCCOc1ccc(C(=O)Nc2ccncc2)cc1 | > 55.7 µM (inactive) |
| CNc1ccccc1C(C)(C)c1cc(-c2ccc(F)cc2)no1 | > 55.7 µM (inactive) |
| C[C@H]1O[C@@H](O[C@H]2[C@@H](O)C[C@H](O[C@H]3[C@@H](O)C[C@H](O[C@H]4CC[C@@]5(C)[C@H](CC[C@@H]6[C@@H]5CC[C@]5(C)[C@@H](C7=CC(=O)OC7)CC[C@]65O)C4)O[C@@H]3C)O[C@@H]2C)C[C@H](O)[C@@H]1O | > 55.7 µM (inactive) |

| SMILES | IC50 |
| --- | --- |
| CCOC(=O)c1sc2nc(CC(=O)OC)nc(NCc3ccc(Cl)cc3)c2c1C | > 55.7 µM (inactive) |
| O=C(Nc1ccc(N2CCOCC2)nc1)c1ccc(C(F)(F)F)cc1 | > 55.7 µM (inactive) |
| O=C1c2ccc(Br)cc2C(=O)N1c1ccc(Cc2ccncc2)cc1 | > 55.7 µM (inactive) |
| c1ccc(C(Cc2nc(-c3ccncc3)no2)c2ccccc2)cc1 | > 55.7 µM (inactive) |
| Cc1nc(CNS(=O)(=O)c2ccc(Oc3ccccc3)cc2)cs1 | > 55.7 µM (inactive) |
| CCOc1cc(C(=S)N2CCOCC2)ccc1OS(=O)(=O)c1ccc(NC(C)=O)cc1 | > 55.7 µM (inactive) |
| C[C@H]1O[C@@H](O[C@H]2[C@@H](O)C[C@H](O[C@H]3[C@@H](O)C[C@H](O[C@H]4CC[C@@]5(C)[C@H](CC[C@@H]6[C@@H]5C[C@@H](O)[C@]5(C)[C@@H](C7=CC(=O)OC7)CC[C@]65O)C4)O[C@@H]3C)O[C@@H]2C)C[C@H](O)[C@@H]1O | > 55.7 µM (inactive) |
| O=C(Nc1ccn(Cc2ccccc2F)n1)c1ccc(COc2ccccc2Cl)cc1 | > 55.7 µM (inactive) |
| O=C(Nc1cccc(O)c1)c1noc2c1CCc1ccccc1-2 | inactive |
| COc1ccc(/C=N/NC(=S)Nc2ccccc2[N+](=O)[O-])cc1O | > 55.7 µM (inactive) |
| CN(C)S(=O)(=O)c1ccc(C(=O)Nc2nc(-c3cccs3)cs2)cc1 | > 55.7 µM (inactive) |
| CCC(C)NC(=S)Nc1ccc(C(=O)OC)cc1 (centres undefined) | > 55.7 µM (inactive) |
| O=C(Nc1ccc(Cc2ccncc2)cc1)c1ccc(S(=O)(=O)N2CCOCC2)cc1 | > 55.7 µM (inactive) |
| Cc1ccc(S(=O)(=O)N(C)c2ccc(C(=O)N3CCN(Cc4ccc5c(c4)OCO5)CC3)cc2)cc1 | > 55.7 µM (inactive) |
| Cc1cc(OCC(=O)Nc2ccncc2)cc(C)c1Br | > 55.7 µM (inactive) |
| O=S(=O)(c1ccc2c(c1)OCCO2)N1CCC(c2nc3ccccc3s2)CC1 | > 55.7 µM (inactive) |
| Cc1ccc(-n2ncc3c(SCc4cccnc4)ncnc32)c(C)c1 | > 55.7 µM (inactive) |
| O=C(Nc1ccc(Oc2ccccc2)cc1)C1CCN(c2c3c(nc4ncnn24)CCC3)CC1 | > 55.7 µM (inactive) |
| COc1ccccc1OCC(=O)c1[nH]c(C)c(C(C)=O)c1C | > 55.7 µM (inactive) |
| O=C(NC1CC1)c1cc2c(s1)-c1ccccc1OC2 | > 55.7 µM (inactive) |
| Oc1ccc(-c2n[nH]c(=S)n2-c2ccc3c(c2)OCCO3)c(O)c1 | > 55.7 µM (inactive) |
| Cc1cc(NC(=O)c2cc(-c3cccs3)on2)nn1Cc1ccc(Cl)cc1 | > 55.7 µM (inactive) |
